Data published in PMC7743076 (bioRxiv, 2021).
Where a name gives a salt, the structure may show the parent alone. Read-outs that look alike come from different tables or passages of the source.

How the values were obtained:
[1] = test system: authentic SARS-CoV-2 (Wuhan-1) in Vero E6-TMPRSS2 cells; type: cell-based
[2] = cited from earlier work; for pKa: ref published literature and PubChem
[3] = test system: SARS-CoV-2 (Wuhan-1) infection in Vero E6 cells; test: Authentic SARS-CoV-2; type: cell-based; conditions: preliminary dose ranging
[4] = test system: SARS-CoV-2 (isolate USA-WA1/2020 or Wuhan-1); design: species or system Syrian hamsters (Mesocricetus auratus); conditions: hamster, in vivo
[5] = test system: SARS-2-PV bearing spike from ancestral strain Wuhan-1, entry into 293T-ACE2-TMPRSS2 cells; type: cell-based, SARS-CoV-2; conditions: for IC50: read-out: IC50, PV entry efficiency
[6] = 120 mg/kg IP, mice; cited from earlier work
[7] = drug with two pKa values printed

## NCCS [Cysteamine]
[1]
  Virus-induced cytopathic effects (in words): significantly decreased virus-induced cytopathic effects
[2]; thiol pKa
  pKa: 8.2
[3]
  Virus-induced cytopathic effects (in words): very effective at decreasing virus-induced cytopathic effects
[4]
  Alveolar hemorrhage scores: significantly lower than in the control group
  Histopathology scores for mixed cell lung inflammation: significantly lower than in the control group
  Lung weights (normalized to terminal body weights): significantly lower than in the control group
  Lymphocytes in BAL: decreases
  Neutrophils in BAL: decreases
  Total cell counts in BAL: lower than in control treated animals
  Total protein in BAL: lower
  Viral N2 gene transcripts in lung tissue: not significantly lower than in controls
[5]
  IC50: ~1000 µM

## O=C(O)[C@@H](S)[C@@H](S)C(=O)O [Succimer, Dimercaptosuccinic acid]
[2]; [7]
  pKa: 10.8
[2]; thiol pKa
  pKa: 8.9

## N[C@@H](CSCC(=O)O)C(=O)O [Carbocysteine]
[1]
  Virus-induced cytopathic effects (in words): not effective
[5]
  Inhibition of SARS-2-PV entry (in words): did not inhibit virus entry

## CC(C)(S)C(=O)N[C@@H](CS)C(=O)O [Bucillamine]
[2]; [7]
  pKa: 10.2
[2]; thiol pKa
  pKa: 8.4

## O=S(=O)(O)CCS [Mesna, 2-mercaptoethane sulfonate, sodium salt]
[2]; thiol pKa
  pKa: > 9

## NCCCNCCSP(=O)(O)O [Amifostine]
[5]
  Inhibition of SARS-2-PV entry (in words): did not inhibit virus entry

## NCCCNCCS [WR-1065]
[3]
  Virus-induced cytopathic effects (in words): very effective at decreasing virus-induced cytopathic effects
[5]
  IC50: ~1000 µM

## Cl.NCCS [cysteamine hydrochloride]
[6]
  Peak plasma concentration: 0.6 mM
  Time of peak plasma concentration after administration: ≤ 5 min

## CO[C@H]1O[C@H](CS)[C@H](O)[C@H](O)[C@H]1O [TDG, methyl 6-thio-6-deoxy-α-D-galactopyranoside]
[2]; TDG, thiol pKa, reported, reference not given
  reported pKa: 9.6
